Data on four molecules can be found in PMC12514841 (Protein Science : A Publication of the Protein Society, 2025).

≈ marks a conversion by molar mass, not a printed value. Where “and” joins values, the source holds several entries; their conditions need not be identical. Equal values may be shown once. Read-outs that look alike come from different tables or passages of the source.

For test [1], the target named is T1, wild-type (WT) BlaC (Mycobacterium tuberculosis, UniProt P9WKD3).
T1 construct: 6xHis tag with TEV cleavage site (N); made in house; host or cells: E. coli BL21 (DE3) pLysS
T1 sequence (P9WKD3 35-307): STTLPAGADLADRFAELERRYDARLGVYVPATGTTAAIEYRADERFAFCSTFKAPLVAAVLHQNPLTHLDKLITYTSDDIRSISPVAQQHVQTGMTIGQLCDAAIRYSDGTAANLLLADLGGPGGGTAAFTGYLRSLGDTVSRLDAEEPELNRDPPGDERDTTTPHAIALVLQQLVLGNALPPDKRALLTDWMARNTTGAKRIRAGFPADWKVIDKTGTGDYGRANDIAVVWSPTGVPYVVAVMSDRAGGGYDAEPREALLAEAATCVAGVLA
The test is classed as biochemical. To be noted: pH 6.4.

In test [2] the target is T1, wild-type (WT) BlaC. The arrangement: method as in Radojković, Chikunova, et al., [2025]. To be noted: 100 mM NaPi, pH 6.4, 25°C, ref Radojković, Chikunova, et al., [2025]; cited from earlier work.
Test [3] concerns E. coli KA797 cells producing BlaC I105G. It counts as cell-based.
Test [4] deals with E. coli KA797 cells producing BlaC I105G-G132N. It counts as cell-based.
In test [5] the test system is E. coli KA797 cells producing BlaC I105Y-S130G. It counts as cell-based.
Test [6] has as its system E. coli KA797 cells producing BlaC G132N. The test is classed as cell-based.
Test [7] concerns E. coli KA797 cells producing BlaC S130G. It counts as cell-based.
The test system of test [8] is E. coli KA797 cells, pUK21 vector without blaC gene. The experiment in a line: Minimum inhibitory concentration determination. The test is classed as cell-based. The conditions noted are these: Escherichia coli, 16 h, 37°C, read-out: MIC carbenicillin. As for the experimental part:
(§1) The MIC was determined for E. coli KA797 cells carrying various pUK21‐blaC plasmids with the lac promoter and tat‐signal peptide upstream of the blaC gene (Figure S7) (Radojković, van Ingen, et al., [2025]). Overnight cultures of E. coli were inoculated into fresh LB medium with 50 μg/mL kanamycin and incubated at 37°C until OD600 reached 2. […] The concentration of the selection antibiotic was increased in 2‐fold increments. The plate was incubated for 16 h at 37°C in a Bioscreen C Pro plate reader with continuous shaking, and the OD600 was recorded every 15 min. The MIC was defined as the concentration of the selection antibiotic at which no increase in OD600 was observed.

In test [9] the test system is E. coli KA797 cells producing wild-type BlaC. As to the kind of experiment: Minimum inhibitory concentration determination. The test is classed as cell-based. The conditions noted are these: Escherichia coli. As for the experimental part: as §1
The subject of test [10] is E. coli KA797 cells producing BlaC I105Y. The test is classed as cell-based.
The next test has as its target T2, wild-type BlaC (Mycobacterium tuberculosis, UniProt P9WKD3).
T2 construct: 6xHis tag with TEV cleavage site (N); made in house; host or cells: E. coli BL21 (DE3) pLysS
T2 sequence (P9WKD3 35-307): T1 sequence (P9WKD3 35-307)
It counts as biochemical.

[11] abbreviates: in combination with carbenicillin at 50 μg/mL.

By kcat is commonly meant the number of substrate molecules converted per active site and unit of time at saturation. Turning to `CC1(C)S[C@@H]2[C@H](NC(=O)[C@H](N)c3ccccc3)C(=O)N2[C@H]1C(=O)O` [Ampicillin, ampicillin], at wild-type (WT) BlaC [1], the KMapp stood at 46 ± 12 µM, the “k cat /K M ^app relative to the wild-type” value came to 1, the kcat turned out to be 9 ± 1 s⁻¹ and the kcat/KMapp stood at 210000 ± 10000 M⁻¹ s⁻¹. Also, the “kcat/KMapp relative to the wild-type” value on wild-type (WT) BlaC [1] turned out to be 1. Also, on wild-type (WT) BlaC [2], the “K M ^app” value was 68 ± 3 µM; the k cat was 14 ± 2 s⁻¹; the “k cat/K M ^app” value is 0.21 ± 0.01 μM^−1 s^−1 and 0.21 ± 0.01 ^a μM^−1 s^−1.

`CC1(C)S[C@@H]2[C@H](NC(=O)C(C(=O)O)c3ccccc3)C(=O)N2[C@H]1C(=O)O` (stereo partly shown) [Carbenicillin, carbenicillin]: the MIC carbenicillin came to 800 µg/mL (≈ 2110 µM) in test [3] (16 h, 37°C); 800 µg/mL (≈ 2110 µM) in [4] (16 h, 37°C); 800 µg/mL (≈ 2110 µM) in test [5] (16 h, 37°C); 400 µg/mL (≈ 1060 µM) in test [6] (16 h, 37°C); 100 µg/mL (≈ 264 µM) in test [7] (16 h, 37°C); 6400 µg/mL (≈ 16900 µM) in [10] (16 h, 37°C). For the same molecule, on wild-type (WT) BlaC [1], the “k cat /K M ^app relative to the wild-type” value came to 1. In addition, in test [6], the “MIC times lower than the wild-type” value is recorded as 2 times. Moreover, the MIC came out at 10 µg/mL (≈ 26.4 µM) in [8] and 800 µg/mL (≈ 2110 µM) in test [9] (16 h, 37°C, read-out: MIC carbenicillin). In addition, the “K M ^app” value on wild-type (WT) BlaC [2] was 5.5 ± 0.7 µM. For the same molecule, the k cat at wild-type (WT) BlaC [2] is 0.51 ± 0.02 s⁻¹. Besides, at wild-type (WT) BlaC [2], the “k cat/K M ^app” value is on record as 0.09 ± 0.01 ^a μM^−1 s^−1.

As to `O=C(O)[C@H]1/C(=C/CO)O[C@@H]2CC(=O)N21` [Clavulanic acid, clavulanic acid], the MIC clavulanic acid in test [3] (setting [11]) came out at 4 µg/mL; in test [4] (setting [11]), 16 µg/mL; in test [5] (setting [11]), 32 µg/mL; in test [6] (setting [11]), 1 µg/mL; in test [7] (setting [11]), 4 µg/mL; in test [10] (setting [11]) it was 2 µg/mL. In [9] (read-out: MIC clavulanic acid, in combination with carbenicillin at 50 μg/mL), the MIC worked out at 1 µg/mL. In addition, at wild-type BlaC, the “incubation time after which the enzyme reaches its original activity again” value is 2 h. Moreover, the “time to full inhibition of the enzyme” value at wild-type BlaC was under 5 min.

`O=C(Cc1cccs1)N[C@@H]1C(=O)N2C(C(=O)O)=C(/C=C/c3ccc([N+](=O)[O-])cc3[N+](=O)[O-])CS[C@H]12` [Nitrocefin, nitrocefin]: on wild-type (WT) BlaC [1], the “K M ^app” value worked out at 180 ± 70 µM, the k cat is 90 ± 20 s⁻¹, the “k cat /K M ^app relative to the wild-type” value was 1 and the “k cat/K M ^app” value was 0.5 ± 0.2 ^a μM^−1 s^−1.
